The values that follow come from patent US6365753B1, “Phthalimides and herbicide containing the same as active component” (Mitsubishi Chemical Corporation, priority 1998, dated 2002).
Note: ranges in brackets are in %.

The first assay concerns Chenopodium album. Description: Soil treatment test pre-emergence application. The note with it: 10 g/a active ingredient, 28th day from treatment, herbicidal index. The class given is in vivo. The protocol:
(§1) Volcanic ash soil from a field was put in a resin-made pot having an area of 200 cm^2. After fertilization, soil previously mixed uniformly with the seeds of Digitaria ciliaris, Setaria viridis, Chenopodium album and Polygonum lapathifolium was scattered on the soil. The emulsifiable concentrate comprising the compound of the invention as an active ingredient which was obtained in Formulation Example 3 was diluted with water, and a prescribed amount of the diluted composition was sprayed uniformly to the surface of the soil by means of a small-sized power pressure spray to give 10 g of the active ingredient per are.
(§2) Thereafter, cultivation was continued in a greenhouse, and the herbicidal effect was examined on the 28th day from the treatment. The results obtained are shown in Table 5 (the compound numbers in Table 5 correspond to those in Tables 1 and 2). The herbicidal effect was evaluated based on the same criteria as in Test Example 1.
`O=C(O)C(Cl)Cc1cc(N2C(=O)c3ccccc3C2=O)c(F)cc1Cl` (stereo not shown) [Compound 3, 2-Chloro-3-(2-chloro-4-fluoro-5-pthalimidophenyl)propionic Acid]: the “Herbicidal Effect Chenopodium album” value is given as 5 (91-100).

For a further assay, the system named is Polygonum lapathifolium. Description: Soil treatment test pre-emergence application. Type of assay: in vivo. To be noted: 10 g/a active ingredient, 28th day from treatment, herbicidal index. The protocol: as §1, §2
In the case of `O=C(O)C(Cl)Cc1cc(N2C(=O)c3ccccc3C2=O)c(F)cc1Cl` (stereo not shown) [Compound 3, 2-Chloro-3-(2-chloro-4-fluoro-5-pthalimidophenyl)propionic Acid], the “Herbicidal Effect Polygonum lapathifolium” value was 5 (91-100).

The subject of the next assay is Digitaria ciliaris. Description: Soil treatment test pre-emergence application. Type of assay: in vivo. The note with it: 10 g/a active ingredient, 28th day from treatment, herbicidal index. The protocol:
as §1, §2
Regarding `O=C(O)C(Cl)Cc1cc(N2C(=O)c3ccccc3C2=O)c(F)cc1Cl` (stereo not shown) [Compound 3, 2-Chloro-3-(2-chloro-4-fluoro-5-pthalimidophenyl)propionic Acid], the “Herbicidal Effect Digitaria ciliaris” value is on record as 0 (0-5).

A further assay concerns Setaria viridis. Description: Soil treatment test pre-emergence application. The class given is in vivo. To be noted: 10 g/a active ingredient, 28th day from treatment, herbicidal index. As for the experimental part: as §1, §2
Take `O=C(O)C(Cl)Cc1cc(N2C(=O)c3ccccc3C2=O)c(F)cc1Cl` (stereo not shown) [Compound 3, 2-Chloro-3-(2-chloro-4-fluoro-5-pthalimidophenyl)propionic Acid]: the “Herbicidal Effect Setaria viridis” value is on record as 0 (0-5).

The subject of a further assay is Alopeculus aequalis. The assay can be described thus: Foliar treatment test (1) post-emergence application. Type of assay: in vivo. The note with it: foliar treatment post-emergence at 1.0- to 2.0-leaf stage, 10 g/a active ingredient, 21st day from treatment; herbicidal index. As for the experimental part: (§3) Volcanic ash soil from a field was put in a resin-made pot having an area of 200 cm^2. After fertilization, the seeds of Brassica juncea, Ipomoea purpurea, Echinochloa crus-galli and Alopeculus aequalis were cast on the soil and uniformly covered with the soil.
(§4) Cultivation was continued in a greenhouse, and when the weeds reached the 1.0- to 2.0-leaf stage, a prescribed amount of the emulsifiable concentrate comprising the compound of the invention as an active ingredient which was prepared in Formulation Example 3 as diluted with water was sprayed uniformly to the weeds by means of a small-sized power pressure spray to give 10 g of the active ingredient per are.
(§5) Thereafter, cultivation was further continued in the greenhouse, and the herbicidal effect was examined on the 21st day from the treatment. The results obtained are shown in Table 6 (the compound numbers in Table 6 correspond to those in Tables 1 and 2). The herbicidal effect was evaluated based on the same criteria as in Test Example 1.
For the molecule `COC(=O)C(Cl)Cc1cc(N2C(=O)c3ccccc3C2=O)ccc1Cl` (stereo not shown) [Compound 1], the “Herbicidal Effect Alopeculus sequalis” value is 1 (6-30).
On the same count and under the same terms, under `COC(=O)C(Cl)Cc1cc(N2C(=O)c3ccc(F)cc3C2=O)ccc1Cl` (stereo not shown) [Compound 2] stands 1 (6-30).
With `O=C(O)C(Cl)Cc1cc(N2C(=O)c3ccccc3C2=O)c(F)cc1Cl` (stereo not shown) [Compound 3, 2-Chloro-3-(2-chloro-4-fluoro-5-pthalimidophenyl)propionic Acid], the “Herbicidal Effect Alopeculus sequalis” value was 1 (6-30).
For the molecule `CCCNC(=O)C(Cl)Cc1cc(N2C(=O)c3ccccc3C2=O)c(F)cc1Cl` (stereo not shown) [Compound 10, 2-Chloro-3-(2-chloro-4-fluoro-5-phthalimidophenyl)-N-propylpropionamide], the “Herbicidal Effect Alopeculus sequalis” value was 3 (51-70).
For the molecule `COC(=O)C=Cc1cc(N2C(=O)c3ccccc3C2=O)c(F)cc1Cl` [Compound 16], the “Herbicidal Effect Alopeculus sequalis” value is on record as 1 (6-30).
On the same count and under the same terms, the result for `CCOC(=O)/C=C/c1cc(N2C(=O)c3ccccc3C2=O)c(F)cc1Cl` [Compound 17, Ethyl 3-(2-Chloro-4-fluoro-5-phthalimidophenyl)acrylate] reads 1 (6-30).

Another assay deals with Ipomoea purpurea. Described as above. Type of assay: in vivo. The note with it: foliar treatment post-emergence at 1.0- to 2.0-leaf stage, 10 g/a active ingredient, 21st day from treatment; herbicidal index. The protocol:
as §3, §4, §5
On to `COC(=O)C(Cl)Cc1cc(N2C(=O)c3ccccc3C2=O)ccc1Cl` (stereo not shown) [Compound 1], for which the “Herbicidal Effect Ipompoea-purpurea” value was 5 (91-100).
Turning to `COC(=O)C(Cl)Cc1cc(N2C(=O)c3ccc(F)cc3C2=O)ccc1Cl` (stereo not shown) [Compound 2], the “Herbicidal Effect Ipompoea-purpurea” value was 5 (91-100).
The same measure, in the same setting: the result for `O=C(O)C(Cl)Cc1cc(N2C(=O)c3ccccc3C2=O)c(F)cc1Cl` (stereo not shown) [Compound 3, 2-Chloro-3-(2-chloro-4-fluoro-5-pthalimidophenyl)propionic Acid] reads 5 (91-100).
Take `CCCNC(=O)C(Cl)Cc1cc(N2C(=O)c3ccccc3C2=O)c(F)cc1Cl` (stereo not shown) [Compound 10, 2-Chloro-3-(2-chloro-4-fluoro-5-phthalimidophenyl)-N-propylpropionamide]: the “Herbicidal Effect Ipompoea-purpurea” value is 5 (91-100).
Same read-out and setting: the result for `COC(=O)C=Cc1cc(N2C(=O)c3ccccc3C2=O)c(F)cc1Cl` [Compound 16] reads 5 (91-100); that for `CCOC(=O)/C=C/c1cc(N2C(=O)c3ccccc3C2=O)c(F)cc1Cl` [Compound 17, Ethyl 3-(2-Chloro-4-fluoro-5-phthalimidophenyl)acrylate], 5 (91-100).

For the next assay, the system named is Brassica juncea. Described as above. The class given is in vivo. To be noted: foliar treatment post-emergence at 1.0- to 2.0-leaf stage, 10 g/a active ingredient, 21st day from treatment; herbicidal index. The protocol:
as §3, §4, §5
Turning to `COC(=O)C(Cl)Cc1cc(N2C(=O)c3ccccc3C2=O)ccc1Cl` (stereo not shown) [Compound 1], the “Herbicidal Effect Brassica juncea” value was 5 (91-100).
With `COC(=O)C(Cl)Cc1cc(N2C(=O)c3ccc(F)cc3C2=O)ccc1Cl` (stereo not shown) [Compound 2], the “Herbicidal Effect Brassica juncea” value is on record as 5 (91-100).
Same read-out and setting: the result for `O=C(O)C(Cl)Cc1cc(N2C(=O)c3ccccc3C2=O)c(F)cc1Cl` (stereo not shown) [Compound 3, 2-Chloro-3-(2-chloro-4-fluoro-5-pthalimidophenyl)propionic Acid] reads 5 (91-100); that for `CCCNC(=O)C(Cl)Cc1cc(N2C(=O)c3ccccc3C2=O)c(F)cc1Cl` (stereo not shown) [Compound 10, 2-Chloro-3-(2-chloro-4-fluoro-5-phthalimidophenyl)-N-propylpropionamide], 5 (91-100); that for `COC(=O)C=Cc1cc(N2C(=O)c3ccccc3C2=O)c(F)cc1Cl` [Compound 16], 5 (91-100).
On the same count and under the same terms, the result for `CCOC(=O)/C=C/c1cc(N2C(=O)c3ccccc3C2=O)c(F)cc1Cl` [Compound 17, Ethyl 3-(2-Chloro-4-fluoro-5-phthalimidophenyl)acrylate] reads 5 (91-100).

A further assay has as its system Echinochloa crus-galli. The assay is described as above. The class given is in vivo. To be noted: foliar treatment post-emergence at 1.0- to 2.0-leaf stage, 10 g/a active ingredient, 21st day from treatment; herbicidal index. As for the experimental part:
as §3, §4, §5
With `COC(=O)C(Cl)Cc1cc(N2C(=O)c3ccccc3C2=O)ccc1Cl` (stereo not shown) [Compound 1], the “Herbicidal Effect Echinochloa crus-galli” value is recorded as 1 (6-30).
On to `COC(=O)C(Cl)Cc1cc(N2C(=O)c3ccc(F)cc3C2=O)ccc1Cl` (stereo not shown) [Compound 2], for which the “Herbicidal Effect Echinochloa crus-galli” value is given as 2 (31-50).
For the molecule `O=C(O)C(Cl)Cc1cc(N2C(=O)c3ccccc3C2=O)c(F)cc1Cl` (stereo not shown) [Compound 3, 2-Chloro-3-(2-chloro-4-fluoro-5-pthalimidophenyl)propionic Acid], the “Herbicidal Effect Echinochloa crus-galli” value is listed as 1 (6-30).
On to `CCCNC(=O)C(Cl)Cc1cc(N2C(=O)c3ccccc3C2=O)c(F)cc1Cl` (stereo not shown) [Compound 10, 2-Chloro-3-(2-chloro-4-fluoro-5-phthalimidophenyl)-N-propylpropionamide], for which the “Herbicidal Effect Echinochloa crus-galli” value was 4 (71-90).
Consider `COC(=O)C=Cc1cc(N2C(=O)c3ccccc3C2=O)c(F)cc1Cl` [Compound 16], for which the “Herbicidal Effect Echinochloa crus-galli” value was 3 (51-70).
`CCOC(=O)/C=C/c1cc(N2C(=O)c3ccccc3C2=O)c(F)cc1Cl` [Compound 17, Ethyl 3-(2-Chloro-4-fluoro-5-phthalimidophenyl)acrylate]: the “Herbicidal Effect Echinochloa crus-galli” value is 1 (6-30).
